Activity calls are given as the source filed them. Unless noted, the calls are words filed in the database; no cut-off is given here.
Key:
Assay type in all cases: functional
[1] = target: T1, Protein disulfide-isomerase (Homo sapiens, UniProt P07237); assay: PDI inhibitors, insulin aggregation turbidity, dose response, biochemical, absorbance, cherry-picked samples (AID 602350)
[2] = target: T1, Protein disulfide-isomerase; assay: PDI inhibitors, insulin turbidity readout, dose response, biochemical, absorbance, cherry-picked samples, set 2 (AID 624274)
[3] = target: T2, High affinity choline transporter 1 (Homo sapiens, UniProt Q9GZV3); assay: CHT inhibitors, dose response, cell-based, 5-point CRC, membrane potential dye (AID 504840)
T2 sequence (Q9GZV3 whole entry): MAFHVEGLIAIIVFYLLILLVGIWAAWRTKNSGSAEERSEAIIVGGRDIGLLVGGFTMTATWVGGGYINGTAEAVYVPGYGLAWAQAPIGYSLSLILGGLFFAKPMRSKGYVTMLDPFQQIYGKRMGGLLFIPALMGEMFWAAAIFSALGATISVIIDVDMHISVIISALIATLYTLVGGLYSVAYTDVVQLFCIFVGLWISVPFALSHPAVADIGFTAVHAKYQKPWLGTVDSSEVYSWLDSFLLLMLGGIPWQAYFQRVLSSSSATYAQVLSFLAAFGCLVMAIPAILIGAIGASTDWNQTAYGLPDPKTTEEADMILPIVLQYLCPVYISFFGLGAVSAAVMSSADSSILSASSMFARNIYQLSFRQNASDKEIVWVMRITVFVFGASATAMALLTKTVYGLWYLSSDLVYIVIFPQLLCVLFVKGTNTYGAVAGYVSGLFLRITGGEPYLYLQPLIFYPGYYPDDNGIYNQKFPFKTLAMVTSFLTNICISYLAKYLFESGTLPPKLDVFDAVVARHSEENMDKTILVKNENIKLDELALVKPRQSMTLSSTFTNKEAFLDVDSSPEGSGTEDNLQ

[4] = target: T2, High affinity choline transporter 1; assay: CHT inhibitors, dose response, cell-based, 10-point CRC, membrane potential dye (AID 588401);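 further: membrane potential dye fluorescence of choline-evoked depolarization via CHT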
[5] = THP-1 cell cytotoxicity, cytotoxicity control, set 5 (AID 588443)
[6] = target: Multidrug resistance protein CDR2 (Candida albicans (strain SC5314 / ATCC MYA-2876) (Yeast), UniProt P78595); assay: CaCDR2 efflux pump inhibitors in yeast, dose response, S. cerevisiae AD1-8u, singleplex, Cherry Pick1 hits (AID 588604)
[7] = target: Sphingosine 1-phosphate receptor 1 (Homo sapiens, UniProt P21453); assay: Late-stage fluorescence-based dose-response cell-based counterscreen assay to identify agonists of the Sphingosine 1-Phosphate Receptor 4 (S1P4): Sphingosine 1-Phosphate Receptor 1 (S1P1) agonist assay Set 2.
[8] = target: Sphingosine 1-phosphate receptor 5 (Homo sapiens, UniProt Q9H228); assay: S1P5 receptor agonists, human, late-stage follow-up, counter-screen for S1P4 agonist project, cell-based, fluorescence, set 2 (AID 504867)
[9] = target: Sphingosine 1-phosphate receptor 3 (Homo sapiens, UniProt Q99500); assay: Late-stage fluorescence-based dose-response cell-based counterscreen assay to identify agonists of the Sphingosine 1-Phosphate Receptor 4 (S1P4): Sphingosine 1-Phosphate Receptor 3 (S1P3) agonist assay Set 2.
[10] = target: Sphingosine 1-phosphate receptor 2 (Homo sapiens, UniProt O95136); assay: S1P2 receptor agonists, human, late-stage follow-up, counter-screen for S1P4 agonist project, cell-based, fluorescence, set 2 (AID 504873)
[11] = target: Melanin-concentrating hormone receptor 1 (Homo sapiens, UniProt Q99705); assay: Late-stage fluorescence-based counterscreen for antagonists of the G-protein coupled receptor 7 (GPR7): cell-based dose response assay to identify antagonists of the melanin-concentrating hormone receptor 1 (MCHR1) Set 6.
[12] = target: T3, Neuropeptides B/W receptor type 1 (Homo sapiens, UniProt P48145); assay: GPR7 antagonist potency, late-stage follow-up, cell-based, fluorescence, dose response, set 6 (AID 588583)
T3 sequence (P48145 whole entry): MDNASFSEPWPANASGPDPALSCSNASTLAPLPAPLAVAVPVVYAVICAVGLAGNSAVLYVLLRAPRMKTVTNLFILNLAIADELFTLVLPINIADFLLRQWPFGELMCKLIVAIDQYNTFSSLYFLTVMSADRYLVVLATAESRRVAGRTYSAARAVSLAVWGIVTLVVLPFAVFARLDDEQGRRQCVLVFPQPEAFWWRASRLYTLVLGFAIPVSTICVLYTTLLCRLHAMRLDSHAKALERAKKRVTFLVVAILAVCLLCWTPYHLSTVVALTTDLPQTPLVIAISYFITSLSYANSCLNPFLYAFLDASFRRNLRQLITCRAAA

[13] = target: T4, Apoptotic protease-activating factor 1 (Homo sapiens, UniProt O14727); assay: SAR analysis of small molecule inhibitors of Apaf-1 in a Fluorescent assay.; conditions: read-out: IC50_Mean
T4 sequence (O14727 whole entry): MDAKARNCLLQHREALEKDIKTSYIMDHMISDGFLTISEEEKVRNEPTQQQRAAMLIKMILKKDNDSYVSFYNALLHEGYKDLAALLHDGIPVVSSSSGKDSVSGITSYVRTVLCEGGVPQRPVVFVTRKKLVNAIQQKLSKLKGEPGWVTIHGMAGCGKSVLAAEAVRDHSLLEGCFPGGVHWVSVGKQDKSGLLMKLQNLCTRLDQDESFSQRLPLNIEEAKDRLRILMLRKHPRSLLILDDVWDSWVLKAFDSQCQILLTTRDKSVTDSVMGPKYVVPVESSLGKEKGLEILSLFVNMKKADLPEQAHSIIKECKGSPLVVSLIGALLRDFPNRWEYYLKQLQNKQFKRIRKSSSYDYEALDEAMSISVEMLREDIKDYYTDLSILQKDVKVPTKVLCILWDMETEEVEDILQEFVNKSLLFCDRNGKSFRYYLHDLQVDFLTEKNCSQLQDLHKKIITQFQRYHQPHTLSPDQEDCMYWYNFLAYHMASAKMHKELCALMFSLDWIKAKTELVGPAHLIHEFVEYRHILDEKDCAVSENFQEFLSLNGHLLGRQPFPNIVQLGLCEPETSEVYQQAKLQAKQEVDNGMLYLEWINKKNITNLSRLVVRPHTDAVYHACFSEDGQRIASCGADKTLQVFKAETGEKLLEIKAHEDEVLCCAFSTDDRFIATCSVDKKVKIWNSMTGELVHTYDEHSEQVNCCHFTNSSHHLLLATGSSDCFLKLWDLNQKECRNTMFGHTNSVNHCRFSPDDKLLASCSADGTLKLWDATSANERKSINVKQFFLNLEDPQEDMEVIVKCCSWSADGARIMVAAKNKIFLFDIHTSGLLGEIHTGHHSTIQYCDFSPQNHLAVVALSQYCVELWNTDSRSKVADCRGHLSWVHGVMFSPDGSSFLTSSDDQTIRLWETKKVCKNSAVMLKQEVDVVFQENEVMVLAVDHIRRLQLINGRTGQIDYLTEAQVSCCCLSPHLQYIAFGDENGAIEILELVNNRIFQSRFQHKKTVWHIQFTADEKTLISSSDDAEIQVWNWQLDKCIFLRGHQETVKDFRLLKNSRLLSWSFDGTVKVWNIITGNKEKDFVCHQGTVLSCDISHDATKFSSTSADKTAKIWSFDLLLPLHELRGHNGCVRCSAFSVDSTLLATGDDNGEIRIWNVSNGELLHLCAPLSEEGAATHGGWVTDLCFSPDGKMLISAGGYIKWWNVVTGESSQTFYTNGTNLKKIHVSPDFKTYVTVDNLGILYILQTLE

T1 sequence (P07237 whole entry): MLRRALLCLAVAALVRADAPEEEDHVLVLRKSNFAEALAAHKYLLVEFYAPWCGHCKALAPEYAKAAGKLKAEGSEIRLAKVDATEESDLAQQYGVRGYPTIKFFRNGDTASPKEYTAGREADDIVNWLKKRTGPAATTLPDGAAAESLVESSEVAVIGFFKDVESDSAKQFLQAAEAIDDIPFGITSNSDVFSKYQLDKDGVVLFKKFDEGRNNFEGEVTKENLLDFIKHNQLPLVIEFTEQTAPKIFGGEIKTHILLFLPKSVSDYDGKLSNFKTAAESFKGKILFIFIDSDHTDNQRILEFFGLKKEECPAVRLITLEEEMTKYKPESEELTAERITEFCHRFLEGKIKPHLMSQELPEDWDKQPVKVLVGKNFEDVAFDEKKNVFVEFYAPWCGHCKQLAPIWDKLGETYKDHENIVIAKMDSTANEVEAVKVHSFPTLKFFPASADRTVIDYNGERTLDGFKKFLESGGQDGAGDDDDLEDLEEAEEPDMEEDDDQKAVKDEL
Sequence of Sphingosine 1-phosphate receptor 1 (P21453 whole entry): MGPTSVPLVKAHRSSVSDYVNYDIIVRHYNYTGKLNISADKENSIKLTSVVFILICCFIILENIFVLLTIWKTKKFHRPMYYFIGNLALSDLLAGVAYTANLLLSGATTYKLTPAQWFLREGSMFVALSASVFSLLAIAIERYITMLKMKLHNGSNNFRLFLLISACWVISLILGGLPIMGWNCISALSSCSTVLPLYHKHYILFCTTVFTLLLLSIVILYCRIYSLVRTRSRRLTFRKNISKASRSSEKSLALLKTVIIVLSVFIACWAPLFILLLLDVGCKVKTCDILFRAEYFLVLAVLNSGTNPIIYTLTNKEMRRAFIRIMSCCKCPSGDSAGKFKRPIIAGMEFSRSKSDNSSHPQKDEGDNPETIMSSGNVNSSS
Sequence of Melanin-concentrating hormone receptor 1 (Q99705 whole entry): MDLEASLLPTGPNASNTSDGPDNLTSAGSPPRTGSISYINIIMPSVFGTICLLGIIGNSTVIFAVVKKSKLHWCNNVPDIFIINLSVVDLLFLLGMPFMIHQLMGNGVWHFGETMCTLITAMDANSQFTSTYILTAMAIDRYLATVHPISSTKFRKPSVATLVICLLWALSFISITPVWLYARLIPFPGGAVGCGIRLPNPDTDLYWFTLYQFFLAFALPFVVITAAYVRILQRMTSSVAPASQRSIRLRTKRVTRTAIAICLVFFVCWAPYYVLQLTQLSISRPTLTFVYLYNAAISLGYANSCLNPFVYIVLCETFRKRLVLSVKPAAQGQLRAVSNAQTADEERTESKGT
Sequence of Multidrug resistance protein CDR2 (P78595 whole entry): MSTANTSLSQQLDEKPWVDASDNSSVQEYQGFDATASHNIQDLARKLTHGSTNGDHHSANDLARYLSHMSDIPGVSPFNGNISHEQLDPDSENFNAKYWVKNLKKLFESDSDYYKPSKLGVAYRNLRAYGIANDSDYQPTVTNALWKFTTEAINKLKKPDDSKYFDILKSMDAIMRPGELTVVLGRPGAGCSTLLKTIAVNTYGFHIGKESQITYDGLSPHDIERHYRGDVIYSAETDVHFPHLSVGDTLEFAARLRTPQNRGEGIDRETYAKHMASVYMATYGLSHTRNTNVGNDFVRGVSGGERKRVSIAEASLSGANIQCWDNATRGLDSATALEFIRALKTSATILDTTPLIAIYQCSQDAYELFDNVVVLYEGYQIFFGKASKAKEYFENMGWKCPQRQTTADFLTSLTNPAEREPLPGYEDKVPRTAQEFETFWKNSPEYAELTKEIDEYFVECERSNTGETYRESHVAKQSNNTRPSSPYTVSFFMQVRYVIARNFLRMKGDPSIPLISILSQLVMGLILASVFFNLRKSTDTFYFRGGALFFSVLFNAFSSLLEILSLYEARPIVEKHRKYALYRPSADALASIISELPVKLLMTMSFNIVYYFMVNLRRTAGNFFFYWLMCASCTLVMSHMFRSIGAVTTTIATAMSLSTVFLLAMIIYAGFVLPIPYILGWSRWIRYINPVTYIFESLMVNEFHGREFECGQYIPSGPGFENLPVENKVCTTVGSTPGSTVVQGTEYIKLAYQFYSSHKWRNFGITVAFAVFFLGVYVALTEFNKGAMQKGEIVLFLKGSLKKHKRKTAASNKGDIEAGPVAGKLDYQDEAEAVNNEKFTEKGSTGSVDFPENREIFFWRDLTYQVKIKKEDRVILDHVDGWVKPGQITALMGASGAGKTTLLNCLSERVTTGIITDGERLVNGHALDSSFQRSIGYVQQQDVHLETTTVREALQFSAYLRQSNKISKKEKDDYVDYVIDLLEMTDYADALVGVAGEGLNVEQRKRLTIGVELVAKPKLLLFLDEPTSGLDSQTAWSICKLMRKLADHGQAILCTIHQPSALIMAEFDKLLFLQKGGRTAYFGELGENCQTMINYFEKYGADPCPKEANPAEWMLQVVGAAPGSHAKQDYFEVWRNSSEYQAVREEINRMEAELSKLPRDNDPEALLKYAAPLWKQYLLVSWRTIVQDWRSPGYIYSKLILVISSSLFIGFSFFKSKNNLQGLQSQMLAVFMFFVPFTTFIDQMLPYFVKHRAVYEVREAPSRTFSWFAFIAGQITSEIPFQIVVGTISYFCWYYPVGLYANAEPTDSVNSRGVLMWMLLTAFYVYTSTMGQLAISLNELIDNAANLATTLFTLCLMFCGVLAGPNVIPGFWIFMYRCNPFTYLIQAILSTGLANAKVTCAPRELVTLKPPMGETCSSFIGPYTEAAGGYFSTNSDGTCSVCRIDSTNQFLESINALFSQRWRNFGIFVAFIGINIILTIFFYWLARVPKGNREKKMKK
Sequence of Sphingosine 1-phosphate receptor 3 (Q99500 whole entry): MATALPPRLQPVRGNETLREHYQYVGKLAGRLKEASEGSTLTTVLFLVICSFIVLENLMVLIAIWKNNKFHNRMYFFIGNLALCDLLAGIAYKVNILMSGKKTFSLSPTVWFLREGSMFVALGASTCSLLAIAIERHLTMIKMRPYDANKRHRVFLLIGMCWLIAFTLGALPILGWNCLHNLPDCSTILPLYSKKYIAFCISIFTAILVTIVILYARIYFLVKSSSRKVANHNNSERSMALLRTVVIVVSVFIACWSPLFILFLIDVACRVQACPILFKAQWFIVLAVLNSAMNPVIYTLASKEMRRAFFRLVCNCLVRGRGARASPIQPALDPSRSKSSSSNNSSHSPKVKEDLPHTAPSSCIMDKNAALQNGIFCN
Sequence of Sphingosine 1-phosphate receptor 2 (O95136 whole entry): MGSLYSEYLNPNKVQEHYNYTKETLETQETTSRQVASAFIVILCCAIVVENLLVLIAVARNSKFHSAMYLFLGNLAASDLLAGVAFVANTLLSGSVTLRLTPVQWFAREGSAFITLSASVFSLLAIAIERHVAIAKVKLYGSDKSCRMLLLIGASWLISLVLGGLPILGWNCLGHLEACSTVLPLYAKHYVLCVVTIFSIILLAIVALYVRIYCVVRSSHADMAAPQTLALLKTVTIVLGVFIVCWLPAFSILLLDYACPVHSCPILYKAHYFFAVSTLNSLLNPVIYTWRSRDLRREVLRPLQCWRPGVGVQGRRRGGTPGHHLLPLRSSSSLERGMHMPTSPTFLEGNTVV
Sequence of Sphingosine 1-phosphate receptor 5 (Q9H228 whole entry): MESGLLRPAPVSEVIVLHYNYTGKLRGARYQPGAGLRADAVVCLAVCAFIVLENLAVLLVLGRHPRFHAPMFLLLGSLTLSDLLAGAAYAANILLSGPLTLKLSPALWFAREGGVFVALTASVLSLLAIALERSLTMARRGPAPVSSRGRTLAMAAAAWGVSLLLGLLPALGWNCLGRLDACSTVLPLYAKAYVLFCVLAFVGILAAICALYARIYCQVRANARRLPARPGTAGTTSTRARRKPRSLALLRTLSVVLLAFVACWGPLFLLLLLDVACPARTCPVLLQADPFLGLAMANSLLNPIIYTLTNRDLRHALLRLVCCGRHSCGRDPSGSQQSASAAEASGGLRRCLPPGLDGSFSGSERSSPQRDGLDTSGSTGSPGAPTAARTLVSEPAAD

CN(C)C1(c2nnnn2CCOC(=O)Nc2ccc(Cl)cc2)CCCCC1
AC50 [1]: < 9 nM (active) | AC50 [2]: 9 nM (active)

CC(C)CC(=O)N=c1nc(S)ss1
IC50 [3]: 3.02 µM (active) | IC50 [4]: 3.98 µM (active)

CC(C)OC(=O)CSc1ncnc2c1cnn2-c1ccccc1
CC50 [5]: > 100 µM (active)

COc1cccc(-c2sc3ccc(OC)cc3c2-c2ccc(OCCN3CCCC3)cc2)c1
EC50 [6]: 10.2 µM (active)

CC/N=C1/S/C(=C/c2cc(C)n(-c3ccc(F)cc3F)c2C)C(=O)N1CC
EC50 [7]: 816 nM (active) | EC50 [8]: 6.18 µM (active) | EC50 [9]: > 25 µM (inactive) | EC50 [10]: > 25 µM (inactive)

N#CC(c1ccc(F)cc1)c1c(Cl)cnn(Cc2cccc3ccccc23)c1=O (stereo not drawn)
IC50 [11]: 154 nM (active) | IC50 [12]: 154 nM (active)

O=C(Nc1ccc2c(c1)C(=O)NC2=O)c1nc2ccccc2s1
IC50 [13]: > 100 µM (inactive)
